Values joined by “and” are separate entries in the source; they are usually repeats but may differ in a detail not shown here. Equal values may be shown once. Marks after values point to notes of the source that are not given here.
Legend:
[1] = Accumulation in the skin after 24 h permeation; assay type: in vitro ADME, porcine; conditions: after 24 h skin permeation from ethanolic solution; for Skin accumulation: acceptor fluid pH 7.4, n = 3
[2] = Skin permeation studies in Franz diffusion cells; assay type: in vitro ADME, porcine; conditions: after 24 h permeation from ethanolic solution into acceptor phase
[3] = Solubility; assay type: physicochemical; conditions: for Solubility in water: deionised water, 25 °C; for Solubility in phosphate buffer pH = 5.4: pH 5.4, 25 °C; for Solubility in phosphate buffer pH = 7.4: pH 7.4, 25 °C
[4] = n-octanol/water and n-octanol/phosphate buffer partition coefficient; assay type: physicochemical; conditions: for log PpH=5.4: n-octanol/phosphate buffer pH 5.4, 25 °C; for log PpH=7.4: n-octanol/phosphate buffer pH 7.4, 25 °C
[5] = Thermal stability by TG analysis; assay type: physicochemical
[6] = Solubility in organic solvents by modified Vogel's method; assay type: physicochemical; conditions: 25 °C
[7] = tested on: L929 cell lines; conditions: high concentrations; cited from earlier work
[8] = known ibuprofen salts; cited from earlier work
[9] = Britton–Robinson buffer at pH 7.4 as acceptor and donor solution; cited from earlier work

Row | Compound | Skin accumulation as % applied dose of IBU [1] [%] | Skin accumulation [1] | Permeation as % applied dose of IBU [2] [%] | Solubility in water [3] [g dm^−3] | Solubility in phosphate buffer pH = 5.4 [3] [g dm^−3] | Solubility in phosphate buffer pH = 7.4 [3] [g dm^−3] | log PpH=5.4 [4] | log PpH=7.4 [4] | T onset, the onset temperature of the thermal degradation [5] [°C] | Solubility in hexane (in words) [6] | Decrease of viability [7] [%] | log P [8] | Increase in flux compared to IBU [9] | logP ([4]; n-octanol/water) | Flux [9] [μg cm^−2 h^−1]
1 | CC(C)Cc1ccc(C(C)C(=O)O)cc1.CCCOC(=O)[C@@H](N)C(C)C [[ValOPr][IBU], L-valine propyl ester ibuprofenate] | 5.9 | 726.42 ± 113.37 ^a μg IBU g^−1 | 13.55 | 4.221 ± 0.033 | 3.057 ± 0.045 | 5.367 ± 0.019 | 2.061 ± 0.001 | 1.197 ± 0.003 | 109.5 |  |  |  |  |  | 
2 | CC(C)Cc1ccc(C(C)C(=O)O)cc1.CCCCCCOC(=O)[C@@H](N)C(C)C [[ValOHex][IBU], L-valine hexyl ester ibuprofenate] |  | 612.86 ± 129.33 ^a μg IBU g^−1 | 9.81 | 1.058 ± 0.002 | 0.759 ± 0.006 | 1.233 ± 0.001 | 2.880 ± 0.011 | 1.279 and 1.279 ± 0.001 | 128.9 | soluble (soluble when more than 100 mg of compound was soluble in 1 cm^3) |  |  |  |  | 
3 | CCOC(=O)[C@@H]1CCCN1 [proline ethyl ester] |  |  |  |  |  |  |  |  |  |  | 20 |  |  |  | 
4 | CC(C)Cc1ccc(C(C)C(=O)[O-])cc1.CCCCCCCCCC[N+](C)(C)CCCCCCCCCC [[N1,1,10,10][IBU]] |  |  |  |  |  |  |  |  |  |  |  | 1.87 | four–five-fold |  | 
5 | CC(C)Cc1ccc(C(C)C(=O)O)cc1 (racemic) [rac-IBU, 2-(4-isobutylphenyl)-propionic acid, reference compound] | 3.1 | 745.69 ± 61.87 μg IBU g^−1 | 6.06 |  |  |  | 3.192 | 1.284 | 189.8 |  |  |  |  | 2.415 ± 0.001 | 0.542
6 | CC(C)Cc1ccc(C(C)C(=O)[O-])cc1.CCCCCC[N+](CCCCCC)(CCCCCC)CCCCCC [[N6,6,6,6][IBU]] |  |  |  |  |  |  |  |  |  |  |  | 2.47 | four–five-fold |  | 
7 | L-valine isopropyl ester ibuprofenate [[ValOiPr][IBU]] | 4.9 | 630.75 ± 61.87 ^a μg IBU g^−1 | 12.09 |  |  |  | 2.186 ± 0.001 | 1.172 ± 0.001 | 90.2 |  |  |  |  |  | 
8 | CC(C)Cc1ccc(C(C)C(=O)O)cc1.CCOC(=O)[C@@H](N)C(C)C [[ValOEt][IBU], L-valine ethyl ester ibuprofenate] | 3.5 | 412.19 ± 38.45 μg IBU g^−1 | 7.33 | 5.542 ± 0.007 | 3.969 ± 0.056 | 5.206 ± 0.044 | 2.023 ± 0.001 | 1.026 and 1.026 ± 0.001 | 89.5 |  |  |  |  |  | 
9 | CC(C)Cc1ccc(C(C)C(=O)[O-])cc1.CCCCn1cc[n+](C)c1 (stereo not shown) [[BMIm][IBU]] |  |  |  |  |  |  |  |  |  |  |  | 1.15 |  |  | 
10 | CC(C)Cc1ccc(C(C)C(=O)O)cc1.CCCCCOC(=O)[C@@H](N)C(C)C [[ValOAm][IBU], L-valine pentyl ester ibuprofenate] |  | 565.60 ± 71.09 ^a μg IBU g^−1 | 11.79 | 1.798 ± 0.019 | 1.380 ± 0.007 | 1.931 ± 0.008 | 2.421 ± 0.002 | 1.259 ± 0.001 | 129.8 | partly soluble (partly soluble when 33–100 mg of compound dissolved in 1 cm^3) |  |  |  |  | 
11 | CC(C)Cc1ccc(C(C)C(=O)O)cc1.CCCCOC(=O)[C@@H](N)C(C)C [[ValOBu][IBU], L-valine butyl ester ibuprofenate] | 7.0 | 815.14 ± 58.92 ^b μg IBU g^−1 | 10.66 | 3.125 ± 0.007 | 2.371 ± 0.016 | 3.089 ± 0.015 |  |  | 119.9 |  |  |  |  |  | 
12 | CC(C)Cc1ccc(C(C)C(=O)[O-])cc1.CCCC[P+](CCCC)(CCCC)CCCC [[P4,4,4,4][IBU]] |  |  |  |  |  |  |  |  |  |  |  | 1.54 |  |  | 
